Laboratory results: publication PMC10897196, “Structure–activity characteristics of phenylalanine analogs selectively transported by L-type amino acid transporter 1 (LAT1)” (Scientific Reports, 2024)
Each block holds one molecule with its values, some of them ahead of it.

Key:
human LAT2 = molecular target: T1, human LAT2 (Homo sapiens, UniProt Q9UHI5); experiment: Inhibition of L-[14C]alanine uptake in HEK293-hLAT2 cells; format: cell-based; settings: 1 μM L-[14C]alanine, 1 min, compounds at 10, 30, 100 μM
T1 construct: expressed in transfected cells
T1 sequence (Q9UHI5 1-535): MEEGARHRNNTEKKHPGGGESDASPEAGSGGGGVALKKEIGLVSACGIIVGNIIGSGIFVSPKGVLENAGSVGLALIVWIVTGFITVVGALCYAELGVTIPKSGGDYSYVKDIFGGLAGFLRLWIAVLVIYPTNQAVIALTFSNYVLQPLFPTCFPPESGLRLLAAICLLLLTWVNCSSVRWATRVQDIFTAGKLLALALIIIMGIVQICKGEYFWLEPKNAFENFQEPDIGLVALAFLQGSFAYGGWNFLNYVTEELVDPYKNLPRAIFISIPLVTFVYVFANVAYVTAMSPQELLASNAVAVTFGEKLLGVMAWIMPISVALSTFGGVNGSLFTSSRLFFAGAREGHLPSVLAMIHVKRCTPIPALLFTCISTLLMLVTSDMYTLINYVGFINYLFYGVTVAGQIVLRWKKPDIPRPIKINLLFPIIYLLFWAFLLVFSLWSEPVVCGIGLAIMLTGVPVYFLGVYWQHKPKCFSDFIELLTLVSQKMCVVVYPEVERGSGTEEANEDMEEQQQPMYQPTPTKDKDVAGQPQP
T1 sequence (P08195 1-529 partner): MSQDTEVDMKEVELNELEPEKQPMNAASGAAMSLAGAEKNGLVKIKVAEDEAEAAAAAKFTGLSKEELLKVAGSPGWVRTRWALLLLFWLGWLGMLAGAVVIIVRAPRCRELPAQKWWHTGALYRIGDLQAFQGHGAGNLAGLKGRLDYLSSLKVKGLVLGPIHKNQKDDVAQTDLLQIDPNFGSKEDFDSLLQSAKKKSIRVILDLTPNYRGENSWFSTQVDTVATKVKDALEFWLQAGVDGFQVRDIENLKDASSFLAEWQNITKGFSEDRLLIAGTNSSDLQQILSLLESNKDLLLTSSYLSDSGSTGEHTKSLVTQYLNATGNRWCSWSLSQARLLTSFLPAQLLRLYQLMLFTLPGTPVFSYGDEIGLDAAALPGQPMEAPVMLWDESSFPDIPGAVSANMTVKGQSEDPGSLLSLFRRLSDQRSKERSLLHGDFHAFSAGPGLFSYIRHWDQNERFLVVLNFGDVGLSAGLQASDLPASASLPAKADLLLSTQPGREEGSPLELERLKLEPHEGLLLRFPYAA
Text: (§1) In this study, we used the HEK293 cells stably expressing human LAT1 or human LAT2, which form a heterodimeric complex with endogenous 4F2hc (CD98hc), required for plasma membrane localization. We first explored the impact of halogen group positioning in the benzene ring of Phe (Fig. 1) on its interaction with LAT1 and LAT2. […] We conducted inhibition experiments to measure the uptake of L-[^14C]leucine by LAT1 and L-[^14C]alanine by LAT2 in the presence or absence of Phe derivatives with an iodo group at position 2, 3, or 4 in the benzene ring.
(§2) The inhibition experiments were performed as described previously. HEK293-hLAT1 (1.5 × 10^5 cells/well) or HEK293-hLAT2 (2 × 10^5 cells/well) cells were plated onto poly-D-lysine-coated 24-well plates (Corning, New York, USA). Following a 2-day culture period, the uptake of 1 μM L-[^14C]leucine or L-[^14C]alanine was measured for 1 min in the absence or presence of non-radiolabeled test compounds at concentrations of 10, 30, and 100 μM. Radioactivity was quantified using a β-scintillation counter (LSC-3100; Aloka, Tokyo, Japan), and protein concentrations were determined with a Micro BCA Protein Assay Kit (Thermo Fisher Scientific, Rockford, IL). To calculate Ki values, the concentration-dependent uptake of L-[^14C]leucine or L-[^14C]alanine was analyzed in the presence and absence of test compounds[49]. The data were plotted against substrate concentration and fitted to Michaelis–Menten kinetics. Ki values were derived using nonlinear regression analysis with the enzyme kinetics inhibition module in GraphPad Prism software (Version 10.0.2; GraphPad Software Inc., San Diego, CA, USA).

human LAT1 = molecular target: T2, human LAT1 (Homo sapiens, UniProt Q01650); experiment: Inhibition of L-[14C]leucine uptake in HEK293-hLAT1 cells; format: cell-based; settings: 1 μM L-[14C]leucine, 1 min, compounds at 10, 30, 100 μM
T2 construct: expressed in transfected cells
Text: as §1, §2

[1] = set-up: method as in PMID 11901210; settings: correlated with LAT1 Ki; cited from earlier work
[2] = Plasma concentration-time profile in normal mice after intravenous administration; format: in vivo; settings: C57BL/6J mice, i.v., 15, 30, 60, 120 min; 2-F-Tyr 15.6 mg/kg, bicyclic-Phe 15 mg/kg
Procedure: The blood samples were collected at 15, 30, 60, and 120 min post-administration into lithium heparin-coated tubes (BD, New Jersey, USA) and then centrifuged at 1,500 ×g for 10 min at 23 °C. The resulting plasma was stored at −80 °C pending analysis by HPLC.
(§3) HPLC analyses were conducted as previously described. In brief, tumors and small intestines were homogenized in ice-cold PBS (3 times the tissue weight, v/w). The homogenates were then centrifuged at 15,000 ×g for 40 min at 4 °C. A 10 μL aliquot of the tissue supernatant or plasma was mixed with 190 μL of acetonitrile (MeCN) to precipitate proteins. This mixture was subsequently centrifuged at 15,000 ×g for 30 min at 4 °C. The resulting supernatant (100 μL) was dried, and the residue was reconstituted in 20 μL of 400 mM sodium borate (pH 8.0). Finally, 5 μL of 40 mM 4-fluoro-7-nitro-2,1,3-benzoxadiazole (NBD-F) in MeCN was added for fluorescence derivatization. HPLC analysis was carried out using a NANOSPACE SI-2 HPLC system (Shiseido, Tokyo, Japan) equipped with a fluorescence detector. […] The mobile phase consisted of MeCN, water, and trifluoroacetic acid (TFA) in a 27.5:72.5:0.05 (v/v/v) ratio, delivered at a flow rate of 200 μL/min.

[3] = Tissue accumulation (plasma, tumor, small intestine) in B16-F10 tumor-bearing mice, HPLC; format: in vivo
Procedure: Female C57BL/6J mice were subcutaneously injected with 2 × 10^6 B16-F10 cells. The cells were prepared in a mixture containing a 1:1 volume ratio of phosphate-buffered saline (PBS) and Matrigel (Corning, New York, USA), with the total injection volume being 200 μL, administered into the dorsal flank. Tumor growth was measured bi-daily using calipers until tumors reached a size of approximately 300 ~ 500 mm^3, at which point they were deemed palpable. […] Blood samples were collected at 30 and 60 min post-administration. Then both the tumors and small intestines were excised and weighed for subsequent analysis by HPLC.
as §3

T2 sequence (Q01650 whole entry, one chain of several): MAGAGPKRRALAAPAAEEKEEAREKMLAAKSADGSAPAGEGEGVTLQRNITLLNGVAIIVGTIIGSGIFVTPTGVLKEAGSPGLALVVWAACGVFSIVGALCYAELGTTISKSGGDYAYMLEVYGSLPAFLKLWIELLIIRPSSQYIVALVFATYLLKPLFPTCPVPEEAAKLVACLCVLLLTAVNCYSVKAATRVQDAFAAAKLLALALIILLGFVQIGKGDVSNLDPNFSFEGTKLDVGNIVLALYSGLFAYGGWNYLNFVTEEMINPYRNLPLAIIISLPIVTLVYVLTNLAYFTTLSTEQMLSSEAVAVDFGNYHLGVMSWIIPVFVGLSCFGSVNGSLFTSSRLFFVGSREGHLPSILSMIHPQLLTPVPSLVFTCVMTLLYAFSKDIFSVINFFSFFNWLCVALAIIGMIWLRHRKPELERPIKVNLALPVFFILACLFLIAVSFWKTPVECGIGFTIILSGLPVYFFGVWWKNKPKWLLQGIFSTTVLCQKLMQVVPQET

Inhibition of LAT2-mediated L-[14C]alanine uptake (in words, rank order) (human LAT2): Phe < 3-F-Phe | Inhibition of LAT1-mediated L-[14C]leucine uptake (in words, rank order) (human LAT1): Phe < 3-F-Phe
Compound: N[C@@H](Cc1cccc(F)c1)C(=O)O [3-F-Phe]

Compound: N[C@@H](Cc1ccc(O)cc1)C(=O)O [Tyr]
Carbonyl oxygen charge [1]: −0.5635

Inhibition of LAT1-mediated L-[14C]leucine uptake (in words, rank order) (human LAT1): 2-F-Phe = Phe
Compound: N[C@@H](Cc1ccccc1F)C(=O)O [2-F-Phe]

Compound: N[C@@H](Cc1ccccc1Cl)C(=O)O [2-Cl-Phe]
Inhibition of LAT1-mediated L-[14C]leucine uptake (in words, rank order) (human LAT1): Phe < 2-Cl-Phe

Compound: N[C@@H](Cc1ccc(O)c(O)c1)C(=O)O [L-DOPA]
Carbonyl oxygen charge [1]: −0.5633

Inhibition of LAT2-mediated L-[14C]alanine uptake (in words, rank order) (human LAT2): 3-F-Phe < 3-Cl-Phe | Inhibition of LAT1-mediated L-[14C]leucine uptake (in words, rank order) (human LAT1): 3-F-Phe < 3-Cl-Phe
Compound: N[C@@H](Cc1cccc(Cl)c1)C(=O)O [3-Cl-Phe]

Inhibition of LAT1-mediated L-[14C]leucine uptake (in words, rank order) (human LAT1): 2-Cl-Phe < 2-Br-Phe
Compound: N[C@@H](Cc1ccccc1Br)C(=O)O [2-Br-Phe]

Concentration in tumor compared with plasma ([3]; i.v., normalized to tissue weight / plasma volume, 2-F-Tyr at 60 min): higher in the tumor than in plasma
Compound: N[C@@H](Cc1ccc(O)cc1F)C(=O)O [2-F-Tyr, 2-Fluoro-L-tyrosine, reference compound]
Plasma concentration (in words) [2]: time-dependent decreases in plasma concentration | Small intestine-to-plasma ratio (I/P) (in words) ([3]; 30 and 60 min after i.v., equimolar doses): considerably higher for 2-F-Tyr than for bicyclic-Phe
